Laboratory results from patent US20130303737A1, “TARGETED SCHIFF BASE COMPLEXES” (NORTHWESTERN UNIVERSITY, priority 2009, published 2013).

Tests used:
[1] = biological target: T1, Slug (Xenopus laevis, UniProt Q91924); assay: EMSA, inhibition of Slug DNA-binding in embryo lysates; assay type: biochemical; details: relative to Co(III)-Ebox at 1 μM
T1 construct: 5x myc; expressed in transfected cells; host or cells: Xenopus laevis embryos injected with in vitro transcribed mRNA; whole embryo lysate, stage 8 / blastula
T1 sequence (Q91924 1-266): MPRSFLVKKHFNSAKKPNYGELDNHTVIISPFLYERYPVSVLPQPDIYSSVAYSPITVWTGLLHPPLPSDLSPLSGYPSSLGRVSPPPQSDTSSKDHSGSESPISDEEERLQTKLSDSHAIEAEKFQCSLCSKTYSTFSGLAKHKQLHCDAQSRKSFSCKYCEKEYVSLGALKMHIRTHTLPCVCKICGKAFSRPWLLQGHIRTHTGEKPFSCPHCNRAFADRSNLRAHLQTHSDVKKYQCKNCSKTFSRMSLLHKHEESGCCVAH
Procedure: (§1) (A) Lysates of blastula stage embryos (lane 1) or embryos with overexpressed Slug protein (lanes 2-6) were incubated with increasing concentrations of Co(III)-Ebox of 0, 0.01, 0.1 and 1 μM for 15 min prior to challenge with a ^32P-labeled Ebox containing Slug DNA probe for 30 min. (B) Lysates of blastula stage embryos injected with Slug, Snail or Sip1 mRNA (lanes 1-9) or Slug, p105, MitF and Lef-1 mRNA (lanes 10-21) were incubated with 0 or 1 μM Co(III)-Ebox for 15 min prior to challenge with ^32P-labeled Slug probe for 30 min and analyzed by EMSA on a native gel. […] Samples were analyzed by EMSA on a native TBE/acrylamide gel.
(§2) Lysates of blastula stage embryos injected with Slug mRNA were incubated with increasing concentrations of Co(1II)-Schiff base of 0, 1.5, 5, 15, 50, 150 and 500 μM (lanes 2-8) for 15 min, then incubated with ^32P-labeled Slug probe for 30 min and visualized by EMSA. Lysates of embryos injected with Slug (lanes 10 and 11), p105 (lanes 13 and 14), MitF (lanes 16 and 17) or Lef-1 (lanes 19 and 20) mRNA were incubated with 0 or 150 μM Co(1II)-Schiff base for 15 min and labeled with ^32P-labeled Slug probe for 30 min. Uninjected embryos are presented in lanes 1, 9, 12, I5 and 18. Samples were separated by EMSA. […]

[2] = biological target: T2, p105 (Homo sapiens, UniProt P19838); assay: EMSA, inhibition of p105 DNA-binding in embryo lysates; assay type: biochemical, Xenopus laevis; details: high concentrations (150 μM per FIG. 4 legend)
T2 construct: 5x myc; expressed in transfected cells; host or cells: Xenopus laevis embryos injected with in vitro transcribed mRNA; whole embryo lysate
T2 sequence (P19838 1-968): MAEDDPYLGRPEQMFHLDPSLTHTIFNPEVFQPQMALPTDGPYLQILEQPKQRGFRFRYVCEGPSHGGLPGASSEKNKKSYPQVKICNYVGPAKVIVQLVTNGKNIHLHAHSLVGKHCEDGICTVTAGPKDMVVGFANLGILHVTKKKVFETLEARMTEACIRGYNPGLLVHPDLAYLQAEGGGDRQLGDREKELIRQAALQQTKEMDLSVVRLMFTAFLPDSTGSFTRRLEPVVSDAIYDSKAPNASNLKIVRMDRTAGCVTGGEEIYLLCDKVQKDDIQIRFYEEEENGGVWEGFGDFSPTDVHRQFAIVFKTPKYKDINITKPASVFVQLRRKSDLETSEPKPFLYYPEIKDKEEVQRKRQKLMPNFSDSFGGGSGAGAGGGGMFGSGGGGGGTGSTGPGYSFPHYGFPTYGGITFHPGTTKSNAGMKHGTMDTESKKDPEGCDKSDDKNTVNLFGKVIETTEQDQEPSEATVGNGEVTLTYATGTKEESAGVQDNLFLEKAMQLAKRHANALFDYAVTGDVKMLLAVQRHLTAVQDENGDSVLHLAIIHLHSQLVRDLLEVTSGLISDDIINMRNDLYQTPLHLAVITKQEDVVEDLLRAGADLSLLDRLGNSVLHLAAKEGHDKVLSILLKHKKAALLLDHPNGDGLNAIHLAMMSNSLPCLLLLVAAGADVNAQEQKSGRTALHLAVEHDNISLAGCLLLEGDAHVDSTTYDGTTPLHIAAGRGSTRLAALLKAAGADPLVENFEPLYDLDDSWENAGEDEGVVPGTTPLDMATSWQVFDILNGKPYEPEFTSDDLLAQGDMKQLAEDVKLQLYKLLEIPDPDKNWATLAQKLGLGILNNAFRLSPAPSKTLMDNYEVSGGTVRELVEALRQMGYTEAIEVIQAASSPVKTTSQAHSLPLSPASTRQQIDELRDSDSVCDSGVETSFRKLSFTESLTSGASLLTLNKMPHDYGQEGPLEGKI
Procedure: as §1, §2

[3] = biological target: T3, Lef-1 (Homo sapiens, UniProt Q9UJU2); assay: EMSA, inhibition of Lef-1 DNA-binding in embryo lysates; assay type: biochemical, Xenopus laevis; details: high concentrations (150 μM per FIG. 4 legend)
T3 construct: 5x myc; expressed in transfected cells; host or cells: Xenopus laevis embryos injected with in vitro transcribed mRNA; whole embryo lysate
Procedure: as §1, §2

[4] = biological target: T1, Slug; assay: In vivo assay: embryos injected with agent and Slug RNA, EMSA at blastula stage; details: 10 fold excess (10 μM) injected
Procedure: Pigmented and albino eggs were obtained and fertilized using standard protocol (Bellmeyer et al. (2003) Dev Cell 4(6):827-839, herein incorporated by reference in its entirety). All embryos are staged using the Niewenkoop-Faber method. Embryos were injected into one-cell at stage 1 in 0.4× modified ringer's (MR) solution with 3% Ficoll then transferred to 0.1×MR until harvesting. mRNA was transcribed in vitro using the SP6 Message Machine Kit (Ambion, Austin, Tex.). Concentrations of mRNA injected into one cell at the 2-cell stage range from 5-50 pg. XSip1 in the vector pCS2+ was obtained from A. Eisaki (Eisaki (2000) Biochem Biophys Res Commun 271(1):151-157, herein incorporated by reference in its entirety). cDNA was generated using PCR amplification and a high fidelity polymerase (Pfu; Roche, Indianapolis Ind.). cDNAs were cloned into a pCS2 variant that adds 5 myc tags to either the N- or C-terminus. All constructs were confirmed by sequencing using a ABI 3730 high-throughput DNA Sequencer.
For in vitro assays, whole embryo lysates were prepared by lysing 5 stage 8 embryos in 100 μL of lysis buffer (1×PBS, 1% NP-40 and Complete protease inhibitor cocktail tablets; Roche, Indianapolis, Ind.). […]

[5] = test system: Snail; assay: E-cadherin promoter firefly luciferase reporter (Snail transcriptional repression); assay type: cell-based; details: MDA-MB-231 cells, up to 250 nM
Procedure: MDA-MB-231 metastatic breast cancer cells express Snail1 in the nucleus. A firefly luciferase plasmid with the E-cadherin promoter region was added upstream of the transcriptional start site Snail (SEE FIG. 7A). Binding of Snail to the E-boxes thereby repress luciferase transcription and therefore luciferase activity.

T3 sequence (Q9UJU2 whole entry, species assumed): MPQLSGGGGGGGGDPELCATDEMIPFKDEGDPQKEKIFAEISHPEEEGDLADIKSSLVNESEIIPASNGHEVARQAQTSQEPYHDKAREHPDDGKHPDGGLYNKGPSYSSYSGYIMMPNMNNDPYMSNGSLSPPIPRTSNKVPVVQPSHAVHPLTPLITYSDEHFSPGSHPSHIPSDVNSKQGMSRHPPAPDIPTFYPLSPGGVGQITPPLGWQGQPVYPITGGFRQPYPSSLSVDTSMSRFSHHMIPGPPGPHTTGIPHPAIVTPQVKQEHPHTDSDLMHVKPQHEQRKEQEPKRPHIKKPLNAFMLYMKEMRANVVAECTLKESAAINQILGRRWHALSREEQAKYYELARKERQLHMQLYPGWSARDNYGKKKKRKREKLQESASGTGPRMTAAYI

[Co(III)(heptanoic acido)(acacen)(NH3)2]Cl [Co(III)-Schiff base]
Excess required to achieve inhibition of Slug comparable to Co(III)-Ebox at 1 μM [1]: 150 fold | Inhibition of p105 DNA-binding [2]: inhibited | Inhibition of Lef-1 DNA-binding [3]: inhibited | Inhibition of Slug function (DNA-binding) after injection in vivo [4]: not inhibited | Luciferase activity of E-cadherin promoter construct (Snail transcriptional activity) [5]: did not affect
